This passage reports ID/organ, Ratio and ID results from ChEMBL document CHEMBL1124314, “Development of phosphonate derivatives of gadolinium chelates for NMR imaging of calcified soft tissues” (J Med Chem, 1989).

For data set [1], the species on record is Rattus norvegicus. Briefly: Biodistribution in normal rat blood in the presence of 0.005 M Gd/0.01 M lig at 2 hr. It is filed as ADME, organism-based. The note with it: in vivo.
For data set [2], the species on record is Rattus norvegicus. In words: Biodistribution in normal rat muscle in the presence of 0.01 M Gd/0.05 M lig. It is filed as ADME, organism-based, Muscle tissue. The conditions noted are these: in vivo.
The species named for data set [3] is Rattus norvegicus. Briefly: Biodistribution in normal rat kidney in the presence of NAC Gd 0.01 M lig at 2 hr. It is filed as ADME, organism-based. The note with it: in vivo.
Data set [4] is described as follows: Ratio of uptake of [GD] in bone 1 hr post injection with 0.025 to that of blood. The data set is classed as functional.
The species named for data set [5] is Rattus norvegicus. In words: Uptake of [GD] in bone 1 h post injection with 0.01 of the compound. The data set is classed as functional, Bone element.
The species named for data set [6] is Rattus norvegicus. Briefly: Biodistribution in normal rat liver in the presence of 0.01 M Gd/0.05 M lig. The data set is classed as ADME, organism-based. The conditions noted are these: in vivo.
The nature of data set [7]: Ratio of uptake of [GD] in bone 1 hr post injection with NCA GD dose to that of blood. The data set is classed as functional.
Data set [8] can be described thus: Ratio of uptake of [GD] in bone 1 hr post injection with 0.002 to that of muscle. It is filed as functional.
The species entered for data set [9] is Rattus norvegicus. In words: Biodistribution in normal rat liver in the presence of 0.005 M Gd/0.01 M lig at 2 hr. It is filed as ADME, organism-based. The conditions noted are these: in vivo.
For data set [10], the species on record is Rattus norvegicus. Briefly: Biodistribution in normal rat bone in the presence of NAC Gd 0.01 M lig at 2 hr. It is filed as ADME, organism-based, Bone element. The note with it: in vivo.
For data set [11], the species on record is Rattus norvegicus. In words: Biodistribution in normal rat lung in the presence of 0.01 M Gd/0.05 M lig. The data set is classed as ADME, organism-based. The note with it: in vivo.
Data set [12] in a line: Ratio of uptake of [GD] in bone 1 hr post injection with 0.002 to that of blood. It is filed as functional.
The nature of data set [13]: Uptake of [GD] in bone 1 hr post injection with NCA GD dose to that of muscle. The data set is classed as functional, Muscle tissue.
Data set [14] is filed under the species Rattus norvegicus. Briefly: Biodistribution in normal rat spleen in the presence of 0.01 M Gd/0.05 M lig. The conditions noted are these: in vivo. The data set is classed as ADME, organism-based.
Data set [15] is filed under the species Rattus norvegicus. In words: Uptake of [GD] in bone 1 hr post injection with 0.002 of the compound. The data set is classed as functional, Bone element.
For data set [16], the species on record is Rattus norvegicus. In words: Biodistribution in normal rat heart in the presence of NAC Gd 0.01 M lig at 2 hr. The data set is classed as ADME, organism-based. The conditions noted are these: in vivo.
Data set [17] can be described thus: Ratio of uptake of [GD] in bone 1 hr post injection with 0.01 to that of muscle. It is filed as functional.
The species entered for data set [18] is Rattus norvegicus. In words: Biodistribution in normal rat blood in the presence of NAC Gd 0.01 M lig at 2 hr. It is filed as ADME, organism-based. The note with it: in vivo.
Data set [19] is filed under the species Rattus norvegicus. Briefly: Biodistribution in normal rat bone in the presence of 0.01 M Gd/0.05 M lig. It is filed as ADME, organism-based, Bone element. The conditions noted are these: in vivo.
Data set [20] is filed under the species Rattus norvegicus. In words: Uptake of [GD] in bone 1 hr post injection with NCA GD dose. It is filed as functional, Bone element.
Data set [21] is filed under the species Rattus norvegicus. Briefly: Biodistribution in normal rat kidney in the presence of 0.01 M Gd/0.05 M lig. It is filed as ADME, organism-based. The conditions noted are these: in vivo.
The species entered for data set [22] is Rattus norvegicus. In words: Biodistribution in normal rat lung in the presence of NAC Gd 0.01 M lig at 2 hr. The conditions noted are these: in vivo. It is filed as ADME, organism-based.
For data set [23], the species on record is Rattus norvegicus. Briefly: Biodistribution in normal rat bone in the presence of 0.005 M Gd/0.01 M lig at 2 hr. The data set is classed as ADME, organism-based, Bone element. The conditions noted are these: in vivo.
The species named for data set [24] is Rattus norvegicus. In words: Uptake of [GD] in bone 1 hr post injection with 0.025 of the compound. The data set is classed as functional, Bone element.
The species named for data set [25] is Rattus norvegicus. Briefly: Biodistribution in normal rat blood in the presence of 0.01 M Gd/0.05 M lig. The data set is classed as ADME, organism-based. The conditions noted are these: in vivo.
The species entered for data set [26] is Rattus norvegicus. Briefly: Biodistribution in normal rat kidney in the presence of 0.005 M Gd/0.01 M lig at 2 hr. It is filed as ADME, organism-based. The conditions noted are these: in vivo.
The species entered for data set [27] is Rattus norvegicus. Briefly: Biodistribution in normal rat lung in the presence of 0.005 M Gd/0.01 M lig at 2 hr. The note with it: in vivo. It is filed as ADME, organism-based.
Data set [28] is filed under the species Rattus norvegicus. Briefly: Biodistribution in normal rat muscle in the presence of NAC Gd 0.01 M lig at 2 hr. The data set is classed as ADME, organism-based, Muscle tissue. The note with it: in vivo.
For data set [29], the species on record is Rattus norvegicus. Briefly: Biodistribution in normal rat spleen in the presence of 0.005 M Gd/0.01 M lig at 2 hr. It is filed as ADME, organism-based. The conditions noted are these: in vivo.
Data set [30] can be described thus: Ratio of uptake of [GD] in bone 1 hr post injection with 0.01 to that of blood. The data set is classed as functional.
Data set [31] is described as follows: Ratio of uptake of [GD] in bone 1 hr post injection with 0.025 to that of muscle. It is filed as functional.
For data set [32], the species on record is Rattus norvegicus. In words: Biodistribution in normal rat liver in the presence of NAC Gd 0.01 M lig at 2 hr. It is filed as ADME, organism-based. The conditions noted are these: in vivo.
For data set [33], the species on record is Rattus norvegicus. Briefly: Biodistribution in normal rat heart in the presence of 0.01 M Gd/0.05 M lig. It is filed as ADME, organism-based. The conditions noted are these: in vivo.
Data set [34] is filed under the species Rattus norvegicus. Briefly: Biodistribution in normal rat muscle in the presence of 0.005 M Gd/0.01 M lig at 2 hr. The conditions noted are these: in vivo. The data set is classed as ADME, organism-based, Muscle tissue.
Data set [35] is filed under the species Rattus norvegicus. In words: Biodistribution in normal rat heart in the presence of 0.005 M Gd/0.01 M lig at 2 hr. The conditions noted are these: in vivo. The data set is classed as ADME, organism-based.
For data set [36], the species on record is Rattus norvegicus. In words: Biodistribution in normal rat spleen in the presence of NAC Gd 0.01 M lig at 2 hr. It is filed as ADME, organism-based. The note with it: in vivo.
Data set [37] is described as follows: Ratio of uptake of [GD] in bone 1 hr post injection with 0.10 to that of muscle. It is filed as functional.
Data set [38] can be described thus: Ratio of uptake of [GD] in bone 1 hr post injection with 0.05 to that of blood. It is filed as functional.
A short description of data set [39]: Ratio of uptake of [GD] in bone 1 hr post injection with 0.05 to that of muscle. It is filed as functional.
The nature of data set [40]: Uptake of [GD] in bone 1 hr post injection with 0.01 to that of muscle. It is filed as functional, Muscle tissue.
The species named for data set [41] is Rattus norvegicus. In words: Uptake of [GD] in bone 1 hr post injection with 0.10 of the compound. The data set is classed as functional, Bone element.
The nature of data set [42]: Ratio of uptake of [GD] in bone 1 hr post injection with 0.10 to that of blood. It is filed as functional.
The species entered for data set [43] is Rattus norvegicus. In words: Uptake of [GD] in bone 1 hr post injection with 0.05 of the compound. The data set is classed as functional, Bone element.
A short description of data set [44]: Ratio of uptake of [GD] in bone 1 hr post injection with 0.01 (N) to that of blood.
For data set [45], the species on record is Rattus norvegicus. In words: Biodistribution in rat muscle in the presence of NCAGd/0.01 M lig. It is filed as ADME, organism-based, Muscle tissue. The conditions noted are these: in vivo.
Data set [46] is filed under the species Rattus norvegicus. In words: Biodistribution in rat bone in the presence of NCAGd/0.01 M lig. It is filed as ADME, organism-based, Bone element. The conditions noted are these: in vivo.
For data set [47], the species on record is Rattus norvegicus. Briefly: Biodistribution in rat kidney in the presence of NCAGd/0.01 M lig. It is filed as ADME, organism-based. The conditions noted are these: in vivo.
A short description of data set [48]: Ratio of uptake of [GD] in bone 1 hr post injection with 0.01 (N) to that of muscle.
For data set [49], the species on record is Rattus norvegicus. In words: Biodistribution in rat spleen in the presence of NCAGd/0.01 M lig. The conditions noted are these: in vivo. It is filed as ADME, organism-based.
For data set [50], the species on record is Rattus norvegicus. Briefly: Biodistribution in rat heart in the presence of NCAGd/0.01 M lig. It is filed as ADME, organism-based. The note with it: in vivo.
For data set [51], the species on record is Rattus norvegicus. In words: Biodistribution in rat liver by in the presence of NCAGd/0.01 M lig. It is filed as ADME, organism-based. The note with it: in vivo.
For data set [52], the species on record is Rattus norvegicus. In words: Uptake of [GD] in bone 1 hr post injection with 0.01 (N) of the compound.
For data set [53], the species on record is Rattus norvegicus. In words: Biodistribution in rat blood in the presence of NCAGd/0.01 M lig. The data set is classed as ADME, organism-based. The note with it: in vivo.

For the compound `O=P(O)(O)C(N(CCN(C(P(=O)(O)O)P(=O)(O)O)C(P(=O)(O)O)P(=O)(O)O)C(P(=O)(O)O)P(=O)(O)O)P(=O)(O)O`, the ID/organ in data set [1] is listed as 1.7%; in data set [2] it was 2%; in data set [3], 0.29%; in [6], 0.5%; in data set [9], 1.6%; in data set [10], 47%. Moreover, the ID/organ in data set [11] was determined as 0.09%; in [14], 0.009%; in data set [16], 0.004%; in data set [18] it was 0.045%; in data set [19], 35%; in [21], 0.38%. Further, the ID/organ in data set [22] turned out to be 0.02%; in data set [23], 42.9%; in data set [25], 0.7%; in [26], 0.4%; in data set [27], 0.1%; in data set [28], 0.3%. Moreover, the ID/organ is given as 0.02% in data set [29]; 0.22% in data set [32]; 0.13% in data set [33]; 2.4% in [34]; 0.04% in [35]; 0.004% in data set [36]. Besides, the Ratio in data set [4] is 20.4; in data set [7], 91.8; in data set [8], 43.5; in data set [12], 73.3; in [13] it was 51.2; in [17] it was 27.7. The Ratio is reported as 37.3 in data set [30] and 12.4 in [31]. Further, the ID in [5] is reported as 50.1%; in data set [15] it was 53.1%; in data set [20], 54.8%; in [24], 35.4%.

On to `O=C(O)CN(CCN(CC(=O)O)CC(=O)O)CCN(CC(=O)O)CC(=O)NCCCP(=O)(O)OP(=O)(O)O`, for which the Ratio in data set [37] was 2.76; in data set [38], 6.42; in [39], 3.38; in data set [40], 5.39; in data set [42], 8.56; in data set [30], 2.12. For the same compound, the ID in data set [5] is 22.9%; in data set [41], 13.7%; in data set [43] it was 17.6%.

Consider `CC(CO)NCCNC(C)C(C)O` (stereo not drawn), for which the Ratio amounted to 0.18% in data set [44], 1.22% in data set [17] and 1.55% in [48]. The ID/organ in [45] is 6.25%; in data set [46], 59.6%; in [47], 2.75%; in [49], 0.13%; in data set [50] it was 0.315%; in data set [51] it was 21.5%. For the same compound, the ID/organ in [53] amounted to 2.31%. For the same compound, the ID in [5] amounted to 6.88%; in data set [20], 59.6%; in data set [52], 3.33%.
